Test results taken from patent US20140374103A1, “TREATING AND RECYLCING OILFIELD WASTE WATER” (BAKER HUGHES INCORPORATED, priority 2013, published 2014).

System: bacteria in oilfield waste water
Conditions: 10 mL of 30 vol % hydrogen peroxide to 250 mL raw oilfield waste water (Sample A and Sample B), room temperature, stirred; before vs after treatment; FIGS. 4 and 5
Description: The number density of the bacteria present in the oilfield waste water is determined before or after introduction of the biocide, the oxidizer, or a combination thereof. Determining the number density of the bacteria is accomplished in various manners. In an embodiment, the number density of the bacteria is determined by particle sizing such as by light scattering. In another embodiment, a small volume of oilfield water is disposed on an agar plate or slant tube and subjected to microbiological counting methods. Alternatively, the number density of the bacteria is determined by quantifying an amount of bacterial adenosine triphosphate (ATP) in a sample of the oilfield waste water, wherein the ATP is retrieved from living bacterial cells. The sample size is a portion or all of the oilfield waste water. […] The ATP quantification is accomplished by lysing the bacterial cells using an enzyme to release ATP into the sample of the oilfield waste water. An assay for the amount of ATP includes introducing a luminescent enzyme such as firefly luciferase to the sample and thereafter collecting luminescence from the luminescent enzyme. […] Thereafter, the number density of bacteria in the oilfield waste water is calculated from the amount of bacterial ATP. […] An aliquot of Sample A and Sample B was collected and subjected to ATP quantification before and after treatment with the hydrogen peroxide.

SMILES: OO [hydrogen peroxide]
- number density of bacteria in the treated water: drastically decreases the number density of bacteria
